Consider 3 compounds from ChEMBL document CHEMBL5038644 (J Med Chem, 2022).

The test system of data set [1] is Rattus norvegicus. Briefly: Cardioprotective activity in Sprague-Dawley rat assessed as effect on left ventricular fractional shortening at 2 micromol/kg, sc after 6 hrs by echocardiography relative to control. The format is functional. The settings on record: dose 2 µmol/kg.
Data set [2] deals with Rattus norvegicus. Briefly: Cardioprotective activity in Sprague-Dawley rat assessed as effect on left ventricular fractional shortening at 2 micromol/kg, sc after 3 hrs by echocardiography relative to control. Format: functional. The settings on record: dose 2 µmol/kg.
The subject of data set [3] is Rattus norvegicus. The data set is described as follows: Cardioprotective activity in Sprague-Dawley rat assessed as effect on cardiac output in sprague-dawley rat at 0.2 micromol/kg, sc after 3 hrs by echocardiography. Format: functional, organism-based. The note with it: dose 0.2 µmol/kg.
Data set [4] deals with Rattus norvegicus. Briefly: Cardioprotective activity in Sprague-Dawley rat assessed as effect on left ventricular fractional shortening at 0.2 micromol/kg, sc after 3 hrs by echocardiography. The format is functional, organism-based. The note with it: dose 0.2 µmol/kg.
The test system of data set [5] is Rattus norvegicus. The data set is described as follows: Cardioprotective activity in Sprague-Dawley rat assessed as effect on cardiac output in sprague-dawley rat at 2 micromol/kg, sc after 6 hrs by echocardiography relative to control. The note with it: dose 2 µmol/kg. The format is functional.
Data set [6] relates to Rattus norvegicus. The data set is described as follows: Cardioprotective activity in Sprague-Dawley rat assessed as effect on cardiac output in sprague-dawley rat at 2 micromol/kg, sc after 3 hrs by echocardiography relative to control. The format is functional. The settings on record: dose 2 µmol/kg.
Data set [7] concerns Rattus norvegicus. The data set is described as follows: Hypotensive effect in Sprague-Dawley rat assessed as decrease in blood pressure at 19.6 to 65 nmol/kg, iv relative to control. Format: functional. The note with it: dose 19.6-65 nmol/kg.
For data set [8], the target named is T1, Apelin receptor (Homo sapiens) (UniProt P35414).
T1 sequence (whole entry): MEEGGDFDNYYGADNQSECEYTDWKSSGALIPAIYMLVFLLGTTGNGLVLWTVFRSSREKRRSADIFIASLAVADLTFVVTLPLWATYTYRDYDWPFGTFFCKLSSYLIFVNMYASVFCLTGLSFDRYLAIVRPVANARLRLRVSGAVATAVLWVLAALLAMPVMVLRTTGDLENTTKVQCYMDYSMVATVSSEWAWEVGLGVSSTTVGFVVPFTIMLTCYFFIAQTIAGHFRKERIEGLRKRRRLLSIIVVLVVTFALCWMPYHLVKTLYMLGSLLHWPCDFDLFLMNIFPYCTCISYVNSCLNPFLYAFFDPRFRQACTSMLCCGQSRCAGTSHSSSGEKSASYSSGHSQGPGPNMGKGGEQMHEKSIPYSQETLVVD
Briefly: Agonist activity at human APJ expressed in HEK293 cells assessed as maximal efficacy for dissociation of G alphai1 from the G beta gamma subunit by BRET-based G protein dissociation assay relative to control. The format is functional, cell-based. The settings on record: filed as agonist.

In data set [9] the target is T1, Apelin receptor (Homo sapiens). The data set is described as follows: Agonist activity at human APJ expressed in HEK293 cell membrane assessed as maximal efficacy for recruitment of PDZ-RhoGEF Galphai1 to cell membrane by BRET-based G protein dissociation assay relative to control. The format is functional.
The target is the same in data set [10]. Briefly: Agonist activity at human APJ expressed in HEK293 cell membrane assessed as maximal efficacy for recruitment of beta-arrestin2 to receptor by BRET-based beta-arrestin2 assay relative to control. The format is functional. The note with it: filed as agonist. For orientation: Bioluminescence resonance energy transfer reports proximity on the nanometre scale.

A short description of data set [11]: Stability in Sprague-Dawley rat plasma assessed as half life measured upto 24 hrs by UPLC-MS analysis. Format: ADME, cell-free.
Data set [12] is described as follows: Stability in Sprague-Dawley rat plasma at 3 mg/kg, iv upto 2 hrs by LC/MS-MS analysis. The format is ADME, organism-based. The settings on record: in vivo.
A short description of data set [13]: AUC in Sprague-Dawley rat plasma at 3 mg/kg, iv by LC/MS-MS analysis. Format: ADME, organism-based. On the set-up: dose 3 mg/kg. The settings on record: in vivo.
The target in the next data set is T2, Apelin receptor (Homo sapiens, UniProt P35414).
T2 sequence (P35414 whole entry): T1 sequence (whole entry)
The data set is described as follows: Agonist activity at human APJ expressed in HEK293 cell membrane assessed as recruitment of PDZ-RhoGEF Galpha12 to cell membrane by BRET-based G protein dissociation assay. The format is functional.

Calls of active or inactive are those of the source. The rule behind the calls is not given here.

As usually defined, the Emax is the greatest response seen or fitted, relative to the assay's reference. A word on the half-life: it is how long it takes for the measured level to halve. In general, AUC refers to the area under the concentration-time curve, a measure of exposure. `CC(C)C[C@@H]1NC(=O)[C@H](CCCNC(=N)N)NC(=O)[C@@H](N)C/C=C\C[C@@H](C(=O)N[C@@H](CCCCN)C(=O)NCC(=O)N2CCC[C@H]2C(=O)N[C@H](Cc2ccc3ccccc3c2)C(=O)O)NC(=O)[C@H](CO)NC1=O`: the Activity was 17% in the data set on Rattus norvegicus [1], 22% in the data set with Rattus norvegicus [2], 16% in the data set on Rattus norvegicus [5] and 22% in the data set with Rattus norvegicus [6]. Also, the result with Rattus norvegicus [3] and in the data set on Rattus norvegicus [4] was Active. Besides, the outcome with Rattus norvegicus [7] was inactive. Also, the Emax amounted to 105% in data set [8], 40% in data set [9] (filed as agonist) and 55% in data set [10]. The half-life in [11] is greater than 1440 min. Besides, the Stability result in data set [12] was “Stable”. For the same compound, the area under the curve (AUC) in data set [13] is 8.8 mg·min/mL.
For orientation: EC50 means the concentration that produces a half-maximal response. In the case of `CCCC[C@H](NC(=O)[C@@H]1CCCN1C(=O)CNC(=O)[C@H](CCCCN)NC(=O)[C@@H]1CCCC[C@H](NC(=O)[C@H](CCCNC(=N)N)NC(=O)[C@@H]2CCC(=O)N2)C(=O)N[C@@H](CCCNC(=N)N)C(=O)N[C@@H](CC(C)C)C(=O)N[C@@H](CO)C(=O)N1)C(=O)N1CCC[C@H]1C(=O)N[C@@H](Cc1ccccc1)C(=O)O`, on Apelin receptor, the EC50 was 63 nM. For the same compound, the figures for the maximal response (Emax) in [8], in data set [9] (filed as agonist) and in [10] were 102%, 100% and 75%, respectively.
For `CC(C)C[C@@H]1NC(=O)[C@H](CCCNC(=N)N)NC(=O)[C@@H](N)C/C=C\C[C@@H](C(=O)N[C@@H](CCCCN)C(=O)NCC(=O)N2CCC[C@H]2C(=O)N[C@H](Cc2cccc3ccccc23)C(=O)O)NC(=O)[C@H](CO)NC1=O`, the Activity was 22% in the data set with Rattus norvegicus [2], 22% in the data set on Rattus norvegicus [6] and -24 mmHg with Rattus norvegicus [7]. Further, the outcome with Rattus norvegicus [4] was Active. Also, the Emax is 103% in data set [8], 3% in data set [9] and 70% in data set [10]. In addition, the Stability entry in data set [12] is on record as “Stable”. This compound came in with an exposure (AUC) in data set [13] of 1.33 mg·min/mL.
